The text below walks through data of article PMC6044507 (ACS Omega, 2018).

The nature of data set [1]: metabolic stability in human liver microsomes. It counts as in vitro ADME. The following applies: for metabolic stability, in words: human liver microsomes 0.5 mg/mL, compound 1 μM; for degradation after an incubation period of 60 min: human liver microsomes. On the technique in general: Microsomes from liver hold many membrane-bound enzymes, among them those of drug oxidation.

In a further data set the test system is CHO wild-type (wt) cells. The data set can be described thus: cAMP accumulation assay in wild-type CHO cells not expressing GPR84. A general note: Changes in cAMP serve as a functional read-out for many G protein-coupled receptors.
Data set [2] concerns the target T1, human GPR84 (Homo sapiens, UniProt Q9NQS5). The experiment in a line: cell-based. The conditions noted are these: for Emax: read-out: efficacy (Emax), cAMP assay; for EC50: CHO cells expressing human GPR84, forskolin 10 μM. It counts as cell-based.
Target sequence in this assay (Q9NQS5 whole entry): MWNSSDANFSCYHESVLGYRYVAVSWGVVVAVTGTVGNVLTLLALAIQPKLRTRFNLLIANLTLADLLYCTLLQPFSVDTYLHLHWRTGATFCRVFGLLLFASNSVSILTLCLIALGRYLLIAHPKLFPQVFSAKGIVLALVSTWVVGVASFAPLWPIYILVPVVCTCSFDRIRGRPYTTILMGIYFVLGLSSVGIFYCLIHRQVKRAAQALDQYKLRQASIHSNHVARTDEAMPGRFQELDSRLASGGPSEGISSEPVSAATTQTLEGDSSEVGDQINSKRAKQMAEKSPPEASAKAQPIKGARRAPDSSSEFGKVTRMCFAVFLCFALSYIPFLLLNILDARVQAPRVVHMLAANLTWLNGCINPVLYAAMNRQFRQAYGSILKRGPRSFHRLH
The target in data set [3] is T1, human GPR84. The data set can be described thus: cell-based. The conditions noted are these: EC50 ± SEM, β-arrestin assay, CHO cells expressing human GPR84.
Target sequence in this assay (Q9NQS5 whole entry): as above
Target sequence in this assay (P32121 whole entry partner): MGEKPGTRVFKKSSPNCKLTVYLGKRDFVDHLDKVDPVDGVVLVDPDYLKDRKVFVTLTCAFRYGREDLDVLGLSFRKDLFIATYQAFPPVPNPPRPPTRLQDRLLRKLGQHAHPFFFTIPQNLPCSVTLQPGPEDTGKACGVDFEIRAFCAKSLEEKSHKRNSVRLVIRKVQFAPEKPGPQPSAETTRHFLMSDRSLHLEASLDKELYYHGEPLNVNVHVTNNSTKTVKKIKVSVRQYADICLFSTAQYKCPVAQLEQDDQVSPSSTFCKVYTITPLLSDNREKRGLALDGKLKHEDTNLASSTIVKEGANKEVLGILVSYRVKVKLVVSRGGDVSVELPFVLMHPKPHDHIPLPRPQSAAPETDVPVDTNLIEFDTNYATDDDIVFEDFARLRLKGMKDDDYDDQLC
In data set [4] the target is T1, human GPR84. The conditions noted are these: compound 10 μM.
Target sequence in this assay (Q9NQS5 whole entry): as the sequence (Q9NQS5 whole entry) above
Target sequence in this assay (P32121 whole entry partner): as the sequence (P32121 whole entry partner) above
Data set [5] relates to human GPR84. The data set can be described thus: pathway bias calculation, Gi. It counts as cell-based. The following applies: corresponding to the bias factor.
The subject of another data set is rodents. The following applies: orally, acute exposure; cited from earlier work.
Data set [6] concerns X-linked inhibitor of apoptosis. The following applies: read-out: IC50, X-linked inhibitor of apoptosis; cited from earlier work.
[7] abbreviates: high concentrations of up to 100 μM.
[8] abbreviates: both, human, pooled human liver microsomes.

The structures appear in SMILES notation. “Also recorded” adds a separate entry of the source.

Turning to `CCCCCCSc1nc(O)cc(O)n1` [2-hexylthiopyrimidine-4,6-diol (5), 2-hexylthiopyrimidine-4,6-diol, reference compound], the “drug disappeared after 30 min of incubation” value in data set [1] (human microsomes, 30 min) was about 40%.

Usually Emax stands for the greatest response seen or fitted, relative to the assay's reference. For `CCCCCCCCNc1cc(=O)[nH]c(=O)[nH]1` [Compound 4, 6-octylaminouracil], the “effect in nontransfected CHO cells (cAMP assay)” value with CHO wild-type (wt) cells is on record as “no effect”. In addition, the “effect on forskolin-induced cAMP accumulation in CHO wt cells” value (“effect … in CHO wt cells” below) in the data set with CHO wild-type (wt) cells (concentrations of up to 1 μM) was “None of the tested compounds showed any significant effect”; in the data set on CHO wild-type (wt) cells (setting [7]) it was “no effect”. The Emax at human GPR84 [2] was 104%.

Turning to `CCCCCCNc1cc(=O)[nH]c(=O)[nH]1` [Compound 20, 6-Hexylamino-2,4(1H,3H)-pyrimidinedione], the “effect … in CHO wt cells” value in the data set with CHO wild-type (wt) cells (concentrations of up to 1 μM) was “None of the tested compounds showed any significant effect”. In addition, in the data set with CHO wild-type (wt) cells (setting [7]), the “effect … in CHO wt cells” value is recorded as “no effect”. For the same molecule, in data set [1], the “metabolic stability, in words” value was “metabolically stable; also recorded: highly stable” and the “degradation after an incubation period of 60 min” value (“degradation … of 60 min” below) is “negligible”. The “degradation after 30 min of incubation, in words” value (“degradation after 30 min” for short) in data set [1] (human microsomes, 30 min) is on record as “no degradation”. Besides, the maximal response (Emax) on human GPR84 [2] was 127%.

As usually defined, the EC50 is the concentration that produces a half-maximal response. A high value points to weaker potency. As a reminder, the half-life is how long it takes for the measured level to halve. For orientation: microsomal CLint means a measure of how fast metabolising enzymes remove a compound, apart from limits set by blood flow. A higher microsomal CLint goes with faster metabolism. As for `CCCCCCCCCNc1cc(=O)[nH]c(=O)[nH]1` [Compound 22, 6-Nonylamino-2,4(1H,3H)-pyrimidinedione], the EC50 at human GPR84 [3] stood at 34 ± 7 nM. In data set [1] (setting [8]), this molecule returned a half-life at 1 μM of 2 min and a microsomal CLint at 1 μM of 880 µL/min/mg. Moreover, the Emax at human GPR84 [2] is 118%.

Turning to `CCCCCCCCCCNc1cc(=O)n(C)c(=O)[nH]1` [Compound 33, 6-Decylamino-3-methyl-2,4(1H,3H)-pyrimidinedione], the “percent receptor activation at 10 μM, β-arrestin assay” value (“percent receptor activation at 10 μM” for short) on human GPR84 [4] is reported as 8%. Moreover, the concentration for a half-maximal effect (EC50) at human GPR84 [3] was over 10000 nM; at human GPR84 [2] (EC50 ± SEM, cAMP assay) it was 1900 ± 680 nM. The Emax on human GPR84 [2] is 72%.

For `Oc1cc(NCCc2ccccc2)nc(O)n1` [Compound 42, 6-(2-Phenylethylamino)-2,4(1H,3H)-pyrimidinedione], in data set [1], the “metabolic stability, in words” value is listed as “highly stable” and the “degradation … of 60 min” value is reported as “negligible”. Also, the “degradation after 30 min” value in data set [1] (human microsomes, 30 min) is listed as “no degradation”.

For `O=c1cc(NCCc2ccc(Cl)cc2)[nH]c(=O)[nH]1` [Compound 47, 6-((p-chlorophenylethyl)amino)-2,4(1H,3H)-pyrimidinedione], the “effect … in CHO wt cells” value with CHO wild-type (wt) cells (concentrations of up to 1 μM) is recorded as “None of the tested compounds showed any significant effect”. Besides, the “preference for Gi coupling versus β-arrestin recruitment” value in the data set with human GPR84 [5] is 79 fold. The Emax on human GPR84 [2] is 137%.

In the case of `O=c1cc(NCCc2ccc(Br)cc2)[nH]c(=O)[nH]1` [Compound 48, 6-(p-Bromophenylethylamino)-2,4(1H,3H)-pyrimidinedione], the “effect … in CHO wt cells” value in the data set on CHO wild-type (wt) cells (concentrations of up to 1 μM) is “None of the tested compounds showed any significant effect”. Also, the “preference for Gi coupling versus β-arrestin recruitment” value in the data set with human GPR84 [5] was 20 fold. Also, in data set [1], the “metabolic stability, in words” value was “metabolically stable; also recorded: highly stable” and the “degradation … of 60 min” value is listed as “negligible”. In addition, the “degradation after 30 min” value in data set [1] (human microsomes, 30 min) was “no degradation”. In addition, the Emax at human GPR84 [2] is 127%.

Turning to `CCc1ccc(CCNc2cc(=O)[nH]c(=O)[nH]2)cc1` [Compound 49, 6-(p-Ethylphenylethylamino)-2,4(1H,3H)-pyrimidinedione], the “effect … in CHO wt cells” value in the data set with CHO wild-type (wt) cells (concentrations of up to 1 μM) is given as “None of the tested compounds showed any significant effect”. The EC50 at human GPR84 [3] was 120 ± 50 nM; at human GPR84 [2] (EC50, cAMP assay), under 10 nM. The Emax on human GPR84 [2] was 136%.

In the case of `COc1ccc(CCNc2cc(=O)[nH]c(=O)[nH]2)cc1OC` [Compound 60, 6-(m,p-Dimethoxyphenethylamino)-2,4(1H,3H)-pyrimidinedione], the “percent receptor activation at 10 μM” value at human GPR84 [4] is recorded as 28%. For the same molecule, the EC50 is over 10000 nM on human GPR84 [3] and 810 ± 230 nM on human GPR84 [2] (EC50 ± SEM, cAMP assay). For the same molecule, at human GPR84 [2], the Emax was 116%.

For the molecule `O=c1cc(NCCc2c[nH]c3ccccc23)[nH]c(=O)[nH]1` [Compound 62, 6-(1H-Indol-3-ylethylamino)-2,4(1H,3H)-pyrimidinedione], on human GPR84 [4], the “percent receptor activation at 10 μM” value was 14%. In addition, on human GPR84 [3], the EC50 was over 10000 nM.

For the molecule `O=c1cc(NCCOc2ccccc2)[nH]c(=O)[nH]1` [Compound 64, 6-(2-Phenoxyethylamino)-2,4(1H,3H)-pyrimidinedione], the EC50 on human GPR84 [3] was 730 ± 130 nM; on human GPR84 [2] (EC50 ± SEM, cAMP assay), 100 ± 50 nM. Besides, on human GPR84 [2], the Emax was 113%.

For the molecule `O=c1cc(N2CCC(Cc3ccccc3)CC2)[nH]c(=O)[nH]1` [Compound 67, 6-(4-Benzylpiperidin-1yl)-2,4(1H,3H)-pyrimidinedione], the EC50 is 600 ± 160 nM at human GPR84 [3] and 130 ± 10 nM on human GPR84 [2] (EC50 ± SEM, cAMP assay). Besides, on human GPR84 [2], the Emax was 114%.

On to `O=c1cc(N2CCN(c3ccc(Cl)cc3)CC2)[nH]c(=O)[nH]1` [Compound 68, 6-[4-(p-Chlorophenyl)-1-piperazinyl]-2,4(1H,3H)-pyrimidinedione], for which a half-maximal response at human GPR84 [3] (EC50) required 1800 ± 200 nM. Besides, on human GPR84 [2], the maximum response (Emax) is 117%.

Regarding `O=c1[nH]c(NCCc2ccc(Br)cc2)c(Br)c(=O)[nH]1` [Compound 74, 5-Bromo-6-(p-bromophenylethylamino)-2,4(1H,3H)-pyrimidinedione], on human GPR84 [3], the EC50 was found to be 6700 ± 1800 nM. Further, the maximum response (Emax) on human GPR84 [2] is 114%.

As usually defined, the IC50 is the concentration needed to halve the response being measured. On to `CCCCCCCCCCCC1=C(O)C(=O)C=C(O)C1=O` [embelin (6), embelin], for which the “dose found to be safe” value in the data set on rodents is given as “up to 3 g/kg”. For the same molecule, the IC50 in data set [6] is 4100 nM.
